This passage reports IC50 results from publication PMC9635984 (Bioorganic & medicinal chemistry letters, 2022).

Each structure is given as a SMILES string.

In the assay the test system is MDA-MB-231 breast cancer cells. Description: In vitro antitumor activity against breast cancer cell line MDA-MB-231. The assay is classed as cell-based. The note with it: Homo sapiens, MDA-MB-231, read-out: IC50 (μM) MDA-MB-231.

As usually defined, the IC50 is the concentration that inhibits the measured activity by half. As for `Cn1c(CCCC(=O)O)nc2cc(N(CCCl)CCCl)ccc21` [Bendamustiune, bendamustine], the IC50 came out at 13.3 µM.
